Test results taken from patent US20260098061A1, “EPHA2-BINDING PENDING PEPTIDE AND COMPOSITION COMPRISING SAME” (PeptiDream Inc., priority 2022, published 2026).
Bridge positions count the residues as written; N and C are the ends. Square brackets hold non-standard residues; d marks the D form. Peptide text beside a SMILES is read from it. * marks the point of attachment. NH(1-deoxy-D-glucityl) = OC[C@@H](O)[C@@H](O)[C@H](O)[C@@H](O)CN*; Trp(1-Me,7-Cl) = Cn1cc(C[C@H](N)C(=O)O)c2cccc(Cl)c21; Ala(2-NH2-4-pyridyl) = Nc1cc(C[C@H](N)C(=O)O)ccn1; dPhe(3-CONH2) = NC(=O)c1cccc(C[C@@H](N)C(=O)O)c1; Trp(1-Me) = Cn1cc(C[C@H](N)C(=O)O)c2ccccc21; 3Pal(6-NH2) = Nc1ccc(C[C@H](N)C(=O)O)cn1; NMehCit = CN[C@@H](CCCCNC(N)=O)C(=O)O; NMe3Pal = CN[C@@H](Cc1cccnc1)C(=O)O; NMeF = CN[C@@H](Cc1ccccc1)C(=O)O; hCit = NC(=O)NCCCC[C@H](N)C(=O)O; 4Pal = N[C@@H](Cc1ccncc1)C(=O)O; NMeE = CN[C@@H](CCC(=O)O)C(=O)O; Cit = NC(=O)NCCC[C@H](N)C(=O)O; NMeN = CN[C@@H](CC(N)=O)C(=O)O; Cba = N[C@@H](CC1CCC1)C(=O)O; NMeA = CN[C@@H](C)C(=O)O

These compounds were tested against T1, Recombinant Human EphA2 Fc Protein (Homo sapiens, UniProt P29317) (assay: SPR interaction analysis (Biacore T200), kinetics of peptides against EphA2). Conditions: Recombinant Human EphA2 Fc Protein captured by Human Antibody Capture kit; single-cycle kinetics; 25° C.; HBS-P+ buffer with 1% DMSO.
T1 construct: purchased Elabscience
Assay type: binding
Summary of the method: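 KD derived from ka and kd, fitted on baseline-subtracted sensorgrams from single-cycle kinetics of five peptide dilutions. Running buffer: HBS-P+ (pH 7.4) plus 1% DMSO, 25° C, Biacore T200. Recombinant human EphA2-Fc held on an antibody capture surface.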

SMILES | Kd [nM]
C[C@H]1NC(=O)CSC[C@@H](C(=O)NCC(N)=O)NC(=O)[C@H](Cc2cn(C)c3ccccc23)NC(=O)[C@H](CCCCNC(N)=O)NC(=O)[C@H](Cc2cn(C)c3ccccc23)NC(=O)[C@H](CC(N)=O)NC(=O)[C@H]([C@@H](C)O)NC(=O)[C@H](CC2CCC2)NC(=O)[C@H](CC(N)=O)NC(=O)[C@H](Cc2ccccc2)N(C)C1=O [PDC_EphA2-00021407-L092, da-MeF-N-Cba-T-N-W1Me-Hcit-W1Me-C-G-NH2] ({CH2CO}-[dA][NMeF]N[Cba]TN[Trp(1-Me)][hCit][Trp(1-Me)]CG-NH2; thioether N-10) | 100 to 400
CC(C)C[C@@H]1NC(=O)[C@H](CC(N)=O)NC(=O)[C@H](Cc2ccncc2)NC(=O)[C@H](Cc2ccccc2)NC(=O)CSC[C@@H](C(=O)NCC(N)=O)NC(=O)[C@H](Cc2cn(C)c3ccccc23)NC(=O)[C@H](Cc2ccc(N)nc2)NC(=O)[C@H](Cc2cn(C)c3ccccc23)NC(=O)[C@H](Cc2ccccc2)N(C)C(=O)[C@H](CCC(=O)O)NC1=O [PDC_EphA2-00022057-L092, F-4Py-N-L-E-MeF-W1Me-3Py6NH2-W1Me-C-G-NH2] ({CH2CO}-F[4Pal]NLE[NMeF][Trp(1-Me)][3Pal(6-NH2)][Trp(1-Me)]CG-NH2; thioether N-10) | 10 to 100
CC(C)C[C@@H]1NC(=O)[C@H](CC(N)=O)NC(=O)[C@H](Cc2c[nH]cn2)NC(=O)[C@H](Cc2ccccc2)NC(=O)CSC[C@@H](C(N)=O)NC(=O)[C@H](Cc2cn(C)c3ccccc23)NC(=O)[C@H](CCCCNC(N)=O)NC(=O)[C@H](Cc2cn(C)c3ccccc23)NC(=O)[C@H](Cc2ccccc2)N(C)C(=O)[C@H](CO)NC1=O [PDC_EphA2-00022417, F-H-N-L-S-MeF-W1Me-Hcit-W1Me-C-NH2] ({CH2CO}-FHNLS[NMeF][Trp(1-Me)][hCit][Trp(1-Me)]C-NH2; thioether N-10) | 10 to 100
CC(C)C[C@@H]1NC(=O)[C@H](Cc2ccnc(N)c2)NC(=O)[C@H](Cc2ccccc2)NC(=O)CSC[C@@H](C(=O)NCC(N)=O)NC(=O)[C@H](Cc2cn(C)c3ccccc23)NC(=O)[C@H](Cc2ccccc2)N(C)C(=O)[C@H](Cc2cn(C)c3ccccc23)NC(=O)[C@H](CCCCNC(N)=O)NC1=O [PDC_EphA2-00022601, F-4Py2NH2-L-Hcit-W1Me-MeF-W1Me-C-G-NH2] ({CH2CO}-F[Ala(2-NH2-4-pyridyl)]L[hCit][Trp(1-Me)][NMeF][Trp(1-Me)]CG-NH2; thioether N-8) | 100 to 400
CC(=O)NCCCC[C@H](NC(=O)[C@@H]1CSCC(=O)N[C@@H](Cc2ccccc2)C(=O)N[C@@H](Cc2ccnc(N)c2)C(=O)N[C@@H](CC(C)C)C(=O)N[C@@H](CCCCNC(N)=O)C(=O)N[C@@H](Cc2cn(C)c3ccccc23)C(=O)N(C)[C@@H](Cc2ccccc2)C(=O)N[C@@H](Cc2cn(C)c3ccccc23)C(=O)N1)C(N)=O [PDC_EphA2-00022602, F-4Py2NH2-L-Hcit-W1Me-MeF-W1Me-C-KAc-NH2] ({CH2CO}-F[Ala(2-NH2-4-pyridyl)]L[hCit][Trp(1-Me)][NMeF][Trp(1-Me)]CK(Ac)-NH2; thioether N-8) | 100 to 400
CC(=O)NCCCC[C@@H](NC(=O)[C@@H]1CSCC(=O)N[C@@H](Cc2ccccc2)C(=O)N[C@@H](Cc2ccnc(N)c2)C(=O)N[C@@H](CC(C)C)C(=O)N[C@@H](CCCCNC(N)=O)C(=O)N[C@@H](Cc2cn(C)c3ccccc23)C(=O)N(C)[C@@H](Cc2ccccc2)C(=O)N[C@@H](Cc2cn(C)c3ccccc23)C(=O)N1)C(N)=O [PDC_EphA2-00022603, F-4Py2NH2-L-Hcit-W1Me-MeF-W1Me-C-dkAc-NH2] ({CH2CO}-F[Ala(2-NH2-4-pyridyl)]L[hCit][Trp(1-Me)][NMeF][Trp(1-Me)]C[dK](Ac)-NH2; thioether N-8) | 100 to 400
CC(C)C[C@@H]1NC(=O)[C@H](CC(N)=O)NC(=O)[C@H](Cc2c[nH]cn2)NC(=O)[C@H](Cc2ccccc2)NC(=O)CSC[C@@H](C(=O)NCC(N)=O)NC(=O)[C@H](Cc2cn(C)c3ccccc23)NC(=O)[C@H](CCCCNC(N)=O)NC(=O)[C@H](Cc2cn(C)c3ccccc23)NC(=O)[C@H](Cc2ccccc2)N(C)C(=O)[C@H](CO)NC1=O [PDC_EphA2-00022606, F-H-N-L-S-MeF-W1Me-Hcit-W1Me-C-G-NH2] ({CH2CO}-FHNLS[NMeF][Trp(1-Me)][hCit][Trp(1-Me)]CG-NH2; thioether N-10) | 10 to 100
CC(=O)NCCCC[C@H](NC(=O)[C@@H]1CSCC(=O)N[C@@H](Cc2ccccc2)C(=O)N[C@@H](Cc2c[nH]cn2)C(=O)N[C@@H](CC(N)=O)C(=O)N[C@@H](CC(C)C)C(=O)N[C@@H](CO)C(=O)N(C)[C@@H](Cc2ccccc2)C(=O)N[C@@H](Cc2cn(C)c3ccccc23)C(=O)N[C@@H](CCCCNC(N)=O)C(=O)N[C@@H](Cc2cn(C)c3ccccc23)C(=O)N1)C(N)=O [PDC_EphA2-00022607, F-H-N-L-S-MeF-W1Me-Hcit-W1Me-C-KAc-NH2] ({CH2CO}-FHNLS[NMeF][Trp(1-Me)][hCit][Trp(1-Me)]CK(Ac)-NH2; thioether N-10) | 10 to 100
CC(=O)NCCCC[C@@H](NC(=O)[C@@H]1CSCC(=O)N[C@@H](Cc2ccccc2)C(=O)N[C@@H](Cc2c[nH]cn2)C(=O)N[C@@H](CC(N)=O)C(=O)N[C@@H](CC(C)C)C(=O)N[C@@H](CO)C(=O)N(C)[C@@H](Cc2ccccc2)C(=O)N[C@@H](Cc2cn(C)c3ccccc23)C(=O)N[C@@H](CCCCNC(N)=O)C(=O)N[C@@H](Cc2cn(C)c3ccccc23)C(=O)N1)C(N)=O [PDC_EphA2-00022608, F-H-N-L-S-MeF-W1Me-Hcit-W1Me-C-dkAc-NH2] ({CH2CO}-FHNLS[NMeF][Trp(1-Me)][hCit][Trp(1-Me)]C[dK](Ac)-NH2; thioether N-10) | 10 to 100
CC(C)C[C@@H]1NC(=O)[C@H](CC(N)=O)NC(=O)[C@H](Cc2cccnc2)N(C)C(=O)[C@@H](Cc2cccc(C(N)=O)c2)NC(=O)CSC[C@@H](C(N)=O)NC(=O)[C@H](CC(N)=O)NC(=O)[C@H]([C@@H](C)O)NC(=O)[C@H](Cc2cn(C)c3ccccc23)NC(=O)[C@H](CCC(=O)NC[C@H](O)[C@@H](O)[C@H](O)[C@H](O)CO)NC(=O)[C@H](Cc2cn(C)c3c(Cl)cccc23)NC(=O)[C@H](Cc2ccccc2)N(C)C(=O)[C@H](CC(N)=O)NC1=O [PDC_EphA2-00026424, df3CON-Me3Py-N-L-N-Me3Py-W1Me7Cl-Qglucamine-W1Me-T-N-C-NH2] ({CH2CO}-[dPhe(3-CONH2)][NMe3Pal]NLN[NMeF][Trp(1-Me,7-Cl)]E(NH(1-deoxy-D-glucityl))[Trp(1-Me)]TNC-NH2; thioether N-12) | < 1
CC(C)C[C@@H]1NC(=O)[C@H](CC(N)=O)NC(=O)[C@H](Cc2cccnc2)N(C)C(=O)[C@@H](Cc2cccc(C(N)=O)c2)NC(=O)CSC[C@@H](C(N)=O)NC(=O)[C@H](CC(N)=O)NC(=O)[C@H]([C@@H](C)O)NC(=O)[C@H](Cc2cn(C)c3ccccc23)NC(=O)[C@H](CCC(=O)NC[C@H](O)[C@@H](O)[C@H](O)[C@H](O)CO)NC(=O)[C@H](Cc2cn(C)c3c(Cl)cccc23)NC(=O)[C@H](CC(N)=O)N(C)C(=O)[C@H](CC(N)=O)NC1=O [PDC_EphA2-00026425, df3CON-Me3Py-N-L-N-MeN-W1Me7Cl-Qglucamine-W1Me-T-N-C-NH2] ({CH2CO}-[dPhe(3-CONH2)][NMe3Pal]NLN[NMeN][Trp(1-Me,7-Cl)]E(NH(1-deoxy-D-glucityl))[Trp(1-Me)]TNC-NH2; thioether N-12) | < 1
CC(C)C[C@@H]1NC(=O)[C@H](CC(N)=O)NC(=O)[C@H](Cc2ccccc2)N(C)C(=O)[C@@H](Cc2cccc(C(N)=O)c2)NC(=O)CSC[C@@H](C(N)=O)NC(=O)[C@H](CC(N)=O)NC(=O)[C@H]([C@@H](C)O)NC(=O)[C@H](Cc2cn(C)c3ccccc23)NC(=O)[C@H](CCCNC(N)=O)NC(=O)[C@H](Cc2cn(C)c3c(Cl)cccc23)NC(=O)[C@H](CCC(=O)O)N(C)C(=O)[C@H](CC(N)=O)NC1=O [PDC_EphA2-00026426, df3CON-Me3Py-N-L-N-MeN-W1Me7Cl-Cit-W1Me-T-N-C-NH2] ({CH2CO}-[dPhe(3-CONH2)][NMeF]NLN[NMeE][Trp(1-Me,7-Cl)][Cit][Trp(1-Me)]TNC-NH2; thioether N-12) | < 1
CC(C)C[C@@H]1NC(=O)[C@H](Cc2ccnc(N)c2)NC(=O)[C@H](Cc2ccccc2)NC(=O)CSC[C@@H](C(N)=O)NC(=O)[C@H](Cc2cn(C)c3ccccc23)NC(=O)[C@H](Cc2ccccc2)N(C)C(=O)[C@H](Cc2cn(C)c3ccccc23)NC(=O)[C@H](C)N(C)C1=O [PDC_EphA2-00026479, F-4Py2NH2-L-MeA-W1Me-MeF-W1Me-C-NH2] ({CH2CO}-F[Ala(2-NH2-4-pyridyl)]L[NMeA][Trp(1-Me)][NMeF][Trp(1-Me)]C-NH2; thioether N-8) | 100 to 400
CC(C)C[C@@H]1NC(=O)[C@H](Cc2ccnc(N)c2)NC(=O)[C@H](Cc2ccccc2)NC(=O)CSC[C@@H](C(N)=O)NC(=O)[C@H](Cc2cn(C)c3ccccc23)NC(=O)[C@H](Cc2ccccc2)N(C)C(=O)[C@H](Cc2cn(C)c3ccccc23)NC(=O)[C@H](CCCCNC(N)=O)N(C)C1=O [PDC_EphA2-00026481, F-4Py2NH2-L-MeHcit-W1Me-MeF-W1Me-C-NH2] ({CH2CO}-F[Ala(2-NH2-4-pyridyl)]L[NMehCit][Trp(1-Me)][NMeF][Trp(1-Me)]C-NH2; thioether N-8) | 100 to 400
CC(C)C[C@@H]1NC(=O)[C@H](CC(N)=O)NC(=O)[C@H](Cc2cccnc2)N(C)C(=O)[C@@H](Cc2cccc(C(N)=O)c2)NC(=O)CSC[C@@H](C(N)=O)NC(=O)[C@H](Cc2cn(C)c3ccccc23)NC(=O)[C@H](CCCCNC(N)=O)NC(=O)[C@H](Cc2cn(C)c3c(Cl)cccc23)NC(=O)[C@H](Cc2ccccc2)N(C)C(=O)[C@H](CO)NC1=O [PDC_EphA2-00026600, df3CON-Me3Py-N-L-S-MeF-W1Me7Cl-Hcit-W1Me-C-NH2] ({CH2CO}-[dPhe(3-CONH2)][NMe3Pal]NLS[NMeF][Trp(1-Me,7-Cl)][hCit][Trp(1-Me)]C-NH2; thioether N-10) | 1 to 10
